Several values for one entry are separate records, joined by “and”; a condition that tells them apart may be missing. Equal entries are not always repeated.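 96-well plates; 48 h exposure; 5 concentrations. Endpoints by linear interpolation between flanking doses. Not reached: highest tested concentration assigned. Abbreviation: GI50, concentration required for 50% inhibition of growth. TGI: total growth inhibition.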 Some results are limits rather than exact numbers.

Test systems include EKVX NSCLC; M14 melanoma; NCI-H23 lung; SF-295 CNS; SK-OV-3 ovarian; TK-10 renal; UACC-62 melanoma; UO-31 renal; SK-MEL-2 melanoma.
Holding throughout (assay): NCI-60 cell line screen, 48 h

For `C[CH2][Ge]([CH2]C)([CH2]C)[O]C(=O)C([O][Ge]([CH2]C)([CH2]C)[CH2]C)c1ccccc1` (configuration not stated), the GI50 in the assay on EKVX NSCLC was 9.4 µM; in the assay on M14 melanoma, 17.1 µM; with NCI-H23 lung, 10.1 µM; with SF-295 CNS, 14.5 µM; in the assay with SK-OV-3 ovarian, 11.1 µM; in the assay with TK-10 renal, 47.6 µM. The GI50 is 14.5 µM in the assay with UACC-62 melanoma and 13 µM in the assay with UO-31 renal. Further, the TGI is 75.1 µM in the assay with EKVX NSCLC; 44.2 µM with M14 melanoma; 44.3 µM with NCI-H23 lung; 41 µM with SF-295 CNS; 31.7 µM in the assay on SK-OV-3 ovarian; more than 100 µM in the assay with TK-10 renal. The TGI in the assay with UACC-62 melanoma came out at 30.7 µM; in the assay with UO-31 renal, 28.7 µM.
On to `OCC#CCCCCOCC#Cc1ccccc1C#CCOCCCCC#CCO`, for which the GI50 is 17.8 µM with EKVX NSCLC; 31.2 µM in the assay on M14 melanoma; 23 µM in the assay on NCI-H23 lung; 19.2 µM in the assay on SF-295 CNS; 51.1 µM in the assay on SK-MEL-2 melanoma; 11.9 µM with TK-10 renal. In addition, the GI50 is 18.4 µM in the assay with UACC-62 melanoma and 55.5 µM in the assay on UO-31 renal. For the same compound, the TGI with EKVX NSCLC is 41.3 µM; in the assay with M14 melanoma it was more than 100 µM; in the assay on NCI-H23 lung, 48.8 µM; in the assay on SF-295 CNS it was 56.5 µM; with SK-MEL-2 melanoma, more than 100 µM; with TK-10 renal, 41.6 µM. In addition, the TGI in the assay with UACC-62 melanoma was 34.3 µM; in the assay with UO-31 renal, more than 100 µM.
With `O=C([CH-]C(=O)c1ccccc1)c1ccccc1.[CH3-].[CH3-].[CH3-].[Sn+4]`, the GI50 in the assay with EKVX NSCLC is 33.1 µM; in the assay on M14 melanoma, 14.7 µM; with NCI-H23 lung it was 18.4 µM; in the assay with SF-295 CNS it was 6.68 µM; in the assay on SK-MEL-2 melanoma, 7.68 µM; in the assay with SK-OV-3 ovarian it was 27.1 µM. In addition, the GI50 was 31.7 µM in the assay with TK-10 renal, 12.2 µM in the assay on UACC-62 melanoma and 12 µM in the assay with UO-31 renal. Moreover, the TGI was more than 100 µM with EKVX NSCLC; 29.5 µM in the assay on M14 melanoma; 63.4 µM in the assay with NCI-H23 lung; 31.5 µM with SF-295 CNS; 56.9 µM in the assay with SK-MEL-2 melanoma; 70.1 µM in the assay with SK-OV-3 ovarian. Moreover, the TGI in the assay on TK-10 renal is 84.9 µM; in the assay with UACC-62 melanoma it was 65.8 µM; with UO-31 renal, 40.4 µM.
In the case of `CCP(C)(C)=O`, the TGI in the assay with EKVX NSCLC, with M14 melanoma, with NCI-H23 lung, in the assay on SF-295 CNS, in the assay on SK-MEL-2 melanoma and with SK-OV-3 ovarian was more than 100 µM throughout. Besides, the TGI with TK-10 renal and with UACC-62 melanoma was more than 100 µM in each case.
In the case of `CC1(C)Cc2nnsc2C2=C1C(=O)CCS2`, the TGI in the assay on EKVX NSCLC, with M14 melanoma, in the assay with NCI-H23 lung, with SF-295 CNS, with SK-MEL-2 melanoma and with SK-OV-3 ovarian was more than 100 µM each time. In addition, the TGI in the assay with TK-10 renal, with UACC-62 melanoma and in the assay with UO-31 renal was more than 100 µM throughout.
Consider `C/C=C/C=C/CCCCCCCCCCCCC[C@]1(OC)C=CC(CC(=O)OC)OO1` (some centres not stated), for which the GI50 is 26.3 µM in the assay on EKVX NSCLC, 19.1 µM in the assay with NCI-H23 lung, 18.5 µM in the assay with SF-295 CNS and 17.6 µM in the assay on TK-10 renal. For the same compound, the TGI came to 57.6 µM in the assay with EKVX NSCLC; 31.9 µM in the assay with M14 melanoma; 36.8 µM in the assay on NCI-H23 lung; 34.3 µM in the assay on SF-295 CNS; 69.5 µM in the assay on SK-MEL-2 melanoma; 81 µM in the assay with SK-OV-3 ovarian. The TGI amounted to 31.7 µM in the assay on TK-10 renal and 29.8 µM in the assay on UACC-62 melanoma.
In the case of `CCOC(=O)C1=C(c2ccccc2)NC(c2ccccc2)=C(C(=O)OCC)c2c1c(=O)cc[nH]c2=O`, the TGI with M14 melanoma, in the assay with NCI-H23 lung, in the assay on SF-295 CNS, in the assay with SK-MEL-2 melanoma, with SK-OV-3 ovarian and in the assay on TK-10 renal was more than 100 µM each time. For the same compound, the TGI in the assay with UACC-62 melanoma and in the assay on UO-31 renal was more than 100 µM in each case.
In the case of `NCCn1cnc2nc(NC(=O)c3ccccc3)[nH]c(=O)c21`, the TGI in the assay on EKVX NSCLC, in the assay on NCI-H23 lung, with SF-295 CNS, in the assay with SK-MEL-2 melanoma, with TK-10 renal and in the assay with UO-31 renal was more than 100 µM in each case.
`Cc1cc(S(=O)(=O)Nc2nc3ccccc3[nH]2)c(SCc2ccccc2)cc1Cl`: the GI50 with EKVX NSCLC is more than 100 µM; in the assay with M14 melanoma it was more than 100 µM; in the assay with NCI-H23 lung, 54.9 µM; in the assay on SF-295 CNS it was 21.3 µM; in the assay with SK-MEL-2 melanoma, more than 100 µM; in the assay on SK-OV-3 ovarian, 70.3 µM. In addition, the GI50 in the assay on TK-10 renal is 38 µM; with UACC-62 melanoma, more than 100 µM; in the assay with UO-31 renal, more than 100 µM. Further, the TGI with EKVX NSCLC, in the assay on M14 melanoma, in the assay with NCI-H23 lung, in the assay on SF-295 CNS, in the assay on SK-MEL-2 melanoma and in the assay with SK-OV-3 ovarian was more than 100 µM each time. Also, the TGI with TK-10 renal, with UACC-62 melanoma and with UO-31 renal was more than 100 µM each time.
With `Cc1ccccc1NC(=O)C(=O)CC(=O)C1CCOC1=O` (configuration not stated), the TGI in the assay with EKVX NSCLC, with M14 melanoma, in the assay on NCI-H23 lung, in the assay with SF-295 CNS, in the assay with SK-MEL-2 melanoma and with SK-OV-3 ovarian was more than 100 µM in each case. Also, the TGI in the assay with TK-10 renal, in the assay on UACC-62 melanoma and in the assay on UO-31 renal was more than 100 µM throughout.
`Cc1cccc(C)c1NC(=O)CCCC(=O)C(C#N)c1ccc(Cl)cc1` (configuration not stated): the TGI in the assay on EKVX NSCLC, in the assay with M14 melanoma, in the assay on NCI-H23 lung, in the assay on SF-295 CNS, in the assay on SK-MEL-2 melanoma and in the assay with SK-OV-3 ovarian was more than 100 µM throughout. Besides, the TGI in the assay on TK-10 renal, in the assay on UACC-62 melanoma and in the assay on UO-31 renal was more than 100 µM each time.
Consider `COc1ccc(/C(=C\c2cc(OC)c(OC)c(OC)c2)C(=O)O)cc1`, for which the TGI in the assay on EKVX NSCLC is more than 100 µM; in the assay with M14 melanoma, more than 100 µM; in the assay with SF-295 CNS it was 45.5 µM; in the assay on TK-10 renal, more than 100 µM; in the assay with UACC-62 melanoma, more than 100 µM; in the assay on UO-31 renal, 97.5 µM.
Turning to `CCOC(=O)C1=C(C)N(NC(=O)OC)C2(N)N(NC(=O)OC)C(C)=C(C(=O)OCC)C12C#N` (configuration not stated), the TGI in the assay with EKVX NSCLC, with M14 melanoma, in the assay with SF-295 CNS, with SK-MEL-2 melanoma, in the assay with SK-OV-3 ovarian and in the assay with UACC-62 melanoma was more than 100 µM in each case. The compound also returned a TGI in the assay on UO-31 renal of more than 100 µM.
For `CCOc1ccc2c(c1)C(=O)c1c-2n(CCCN)c(=O)c2cc([N+](=O)[O-])ccc12`, the GI50 with EKVX NSCLC is 1.19 µM; with M14 melanoma it was 0.0343 µM; in the assay with NCI-H23 lung, 0.0425 µM; with SF-295 CNS it was 0.0146 µM; in the assay on SK-MEL-2 melanoma it was 1.53 µM; with TK-10 renal, 1.27 µM. Moreover, the GI50 in the assay with UACC-62 melanoma was 0.0768 µM; with UO-31 renal, less than 0.01 µM. For the same compound, the TGI in the assay on EKVX NSCLC worked out at 2.57 µM; in the assay on M14 melanoma, 1.19 µM; in the assay with NCI-H23 lung, 0.473 µM; with SF-295 CNS, 1.19 µM; in the assay with SK-MEL-2 melanoma, 3.27 µM; in the assay with TK-10 renal, 2.78 µM. Besides, the TGI was 1.82 µM in the assay with UACC-62 melanoma and 0.205 µM in the assay on UO-31 renal.
Take `CN(C)CCC(=O)N1CCc2c([nH]c3ccccc23)C1c1cccnc1` (configuration not stated): the TGI in the assay on EKVX NSCLC, in the assay with M14 melanoma, in the assay with NCI-H23 lung, in the assay with SF-295 CNS, with SK-OV-3 ovarian and in the assay with TK-10 renal was more than 100 µM each time. The TGI with UACC-62 melanoma and in the assay on UO-31 renal was more than 100 µM in each case.
Regarding `C=C[Si](C)(C)COC(=O)/C(C#N)=C/C=C/c1ccccc1`, the TGI in the assay on EKVX NSCLC, with M14 melanoma, in the assay with NCI-H23 lung, with SF-295 CNS, in the assay on SK-MEL-2 melanoma and in the assay with SK-OV-3 ovarian was more than 100 µM in each case. Moreover, the TGI with UACC-62 melanoma and with UO-31 renal was more than 100 µM throughout.
For `Cc1cccc(Cl)c1NC(=O)c1cccc([N+](=O)[O-])c1O`, the TGI was more than 100 µM with EKVX NSCLC; more than 100 µM in the assay with M14 melanoma; 85.1 µM with NCI-H23 lung; more than 100 µM in the assay on SF-295 CNS; more than 100 µM in the assay on SK-OV-3 ovarian; 93.9 µM with UACC-62 melanoma. Also, in the assay with UO-31 renal, the TGI amounted to 59.5 µM.
For `Cc1nc2ccccc2c(/C=C/c2ccccc2)c1C(=O)/C=C/c1ccc(Cl)cc1`, the results for the GI50 with SK-OV-3 ovarian, in the assay with UACC-62 melanoma and in the assay on UO-31 renal were more than 100 µM, 1.5 µM and 1.28 µM, respectively. Further, the TGI is more than 100 µM in the assay on SK-OV-3 ovarian, 3.25 µM in the assay on UACC-62 melanoma and 2.55 µM in the assay with UO-31 renal.
Turning to `CC(=O)OCC1OC(n2c(=S)n(-c3ccccc3)c(=O)c3cc(Br)ccc32)C(OC(C)=O)C(OC(C)=O)C1OC(C)=O` (configuration not stated), the TGI in the assay with EKVX NSCLC, with M14 melanoma, with NCI-H23 lung, in the assay on SF-295 CNS, in the assay with SK-MEL-2 melanoma and in the assay on SK-OV-3 ovarian was more than 100 µM each time. For the same compound, the TGI in the assay with UACC-62 melanoma and in the assay with UO-31 renal was more than 100 µM each time. Also, the GI50 in the assay on SF-295 CNS is 46.5 µM and > 100 µM; in the assay with SK-MEL-2 melanoma it was 47 µM and > 100 µM.

The record behind these values is PubChem BioAssay (NCI).
